From patent publication US20210196816A1, “ALGAE COMPRISING THERAPEUTIC AND/OR NUTRITIONAL AGENTS” (TomAlgae CVBA, priority 2016, published 2021)

Key:
algae cells [1] = test: Loading of algae with astaxanthin, microscopic examination; design: species or system Cyclotella meneghiniana; conditions: over 24 hours
Protocol: A rehydration composition was prepared by adding 1 g of synthetic astaxanthin to 200 ml of fresh, potable water, then microwaving 3 times for 1 min each time.
The algae were then rehydrated by blending the astaxanthin solution (suspension) together with 1 litre of potable water and 200 mg of the algae powder for 2 minutes.
Astaxanthin particles were able to penetrate inside algae cells and were also absorbed by the porous surface of the siliceous exoskeleton (frustule).

algae cells [2] = test: Loading of freeze-dried algae with vitamin C by rehydration; vitamin C in algal cells by HPLC-DAD; design: species or system Cyclotella meneghiniana; conditions: rehydration in 5 g/L vitamin C; incubation at 28° C.
Protocol: A rehydration composition was prepared by dissolving 500 mg per litre vitamin C in filtered natural (North Sea) seawater (20° C.). A second rehydration composition was prepared by dissolving 5 g per litre vitamin C in the seawater. As a control, a third rehydration composition consisted of just the clean seawater without any vitamin C added.
The algae were then rehydrated by adding one of the rehydration compositions to a standard kitchen blender (Kenwood KM230, 650 W, with blender attachment). The blender was switched on at a moderate mixing speed (speed 4) to agitate the rehydration composition. Then 10 g per litre of freeze-dried algae was added to the rehydration composition while mixing, and the freeze-dried algae was allowed to blend into the rehydration composition for 2 minutes. Cell integrity after rehydration was verified using a microscope.
Each of the three rehydration compositions comprising rehydrated algae were split into six replicates. Three replicates of each composition were harvested immediately after rehydration. The remaining three replicates of the treatment groups were incubated in a water bath at 28° C. and provided with moderate aeration. […]
The concentration of vitamin C in the algal cells of the treatment groups and control at the different time points were then analysed by high-performance liquid chromatography with Diode-Array Detection.

SMILES: CC1=C(/C=C/C(C)=C/C=C/C(C)=C/C=C/C=C(C)/C=C/C=C(C)/C=C/C2=C(C)C(=O)[C@@H](O)CC2(C)C)C(C)(C)C[C@H](O)C1=O [astaxanthin]
- stability of association of astaxanthin particles within algae cells (algae cells [1]): remained stable

SMILES: O=C1O[C@H]([C@@H](O)CO)C(O)=C1O [vitamin C]
- time for which the vitamin C level in the algae cells was maintained (algae cells [2]): ≥ 6 h
